Measurements as given in patent US7326540B2, “Methods for identifying compounds that modulate stabilization of secretase-associated proteins” (priority 2003, dated 2008).

Key:
[1] = tested on: CHO cells overexpressing APP751 and PS1 WT; experiment: Induction of apoptosis (caspase 3 activation, TUNEL); format: cell-based, Chinese Hamster; conditions: STS 1 μM, after 6 hrs
[2] = tested on: γ-secretase complex proteins; experiment: γ-secretase complex protein levels by Western blot in A431 cells; format: cell-based, human; conditions: after 6 hours of STS treatment
Procedure: Chinese Hamster Ovary (CHO) cells expressing APP751 and BACE (CAB), CHO cells expressing full-length APP and wild-type PS1 (CHO-APP751/PS1) or expressing C99 and wild-type PS1 (CHO-CC99/PS1), H4 human neuroglioma cells expressing APP751 (H4-APP751), mouse embryonic fibroblast (MEF), embryonic stem (ES) cells, and human epithelial A431 cells were grown as described previously (Marambaud, P. et al., Embo J 21, 1948-56 (2002); Cai, H. et al., Nat Neurosci 4, 233-4 (2001); Sato, N. et al., Nat Cell Biol 2, 863-70 (2000); Puglielli, L., Ellis, B. C., Saunders, A. J. & Kovacs, D. M., J Biol Chem 278, 19777-83 (2003); Wolfe, M. S. et al., Nature 398, 513-7 (1999)). For the induction of apoptosis, we used staurosporine or etoposide (Calbiochem (EMD Biosciences, San Diego, Calif.)). For Aβ measurements, cells were seeded at the density of 0.5×10^6 cells per well in 6 well plates. After 48 hours, cells were treated with either STS (1 μM) for 6 hours. In order to inhibit caspase activation a sister plate of cells was pre-treated with zVAD ([…], Enzyme Systems Products) for 1 hour before STS treatment. For time-course experiments, cells were seeded at the density of 2×10^6 cells per 100 mm dish and treated with STS (1 μM) or etoposide (100 μg/mL). At different time points (0, 3, 6, 9, 12 and 24 hours), the cells were scraped, centrifuged and then lysed in buffer containing 1% NP40. […]

[3] = tested on: BACE, PS1, nicastrin, Pen-2 and Aph1a mRNA; experiment: Northern blot of BACE and γ-secretase complex component mRNA in H4-APP751 cells; format: cell-based, human; conditions: after 6 hours of STS treatment
Procedure: FIG. 14 provides digitized images showing that transcription of BACE and γ-secretase complex components is decreased during apoptosis. Northern Blot analysis: H4-APP751 cells were treated with STS in serum free media. Total RNA was extracted using TRIZOL (Invitrogen). 20 μg of the resulting RNA were analyzed by Northern blot analysis performed as previously described (Koh, Y. H. et al., Faseb J 15, 1472-4 (2001)). Human cDNA of BACE, PS1 , nicastrin, Pen-2, Aph1a was labeled with [α-^32P]dCTP (PerkinElmer) using random hexanucleotide primers (Prime-a-gene labeling system; Promega). Ethidium staining of the gel (lower panel) confirmed equal RNA loading.
We next asked whether apoptosis increases protein levels of BACE, PS1, nicastrin, Pen-2 and Aph1a via increased synthesis. […] We next asked whether BACE, PS1, nicastrin, Pen-2 and Aph1a protein levels are increased during apoptosis due to decreased degradation. […] In contrast, TACE, full-length APP, and APP-CTFs were not stabilized during apoptosis (FIG. 15a). Given that the components of the β-amyloidogenic secretases are stabilized during apoptosis while many other proteins are degraded (e.g. TACE, APP), the apparent increase of protein levels at the latest time points of the CHX+STS time course was most likely due to a relative increase of stabilized protein when normalized for the equal amounts of total protein.

With CN[C@@H]1C[C@H]2O[C@@](C)([C@@H]1OC)n1c3ccccc3c3c4c(c5c6ccccc6n2c5c31)C(=O)NC4 [STS, staurosporine] the “Apoptosis (caspase 3 activated, TUNEL positive)” value [1] was “induced apoptosis”, the “immature nicastrin levels increase” value [2] was about 1.5 fold and the “protein levels of PS1, Pen-2 and Aph1a” value [2] was “unchanged”. The “BACE, PS1, nicastrin, Pen-2 and Aph1a mRNA levels” value [3] was “virtually undetectable”.
